Measurements from patent US11040937B2, “Amide derivative” (TOHOKU UNIVERSITY, priority 2014, dated 2021).

Tested on: OPN production in A549 cells
Test: OPN production in culture supernatant by ELISA, per mg cell protein
Type: cell-based, human
Conditions: for amount of the OPN production vs control group: 2 days, significance level less than 1%
Protocol: Brefelamide (Compound 1) was added to a culture liquid containing cells of human liver cancer-derived cell line HepG2, human non-small cell lung cancer-derived cell line A549, human renal cell carcinoma-derived cell line OUR-10, or human pancreatic cancer-derived cell line QGP-1, and the amount of OPN in the culture supernatant after 2 days was measured using Human Osteopontin Immunoassay kit (R&D systems). The confirmation test was performed by comparison of the OPN amount of Compound 1-treated group with that of DMSO-treated group (control group). In addition, Compounds 6, 19, 26, and 38 which are brefelamide derivatives were added to a culture liquid containing cells of human non-small cell lung cancer-derived cell line A549, and a similar confirmation test to the above-mentioned test was performed.
Compounds 1, 6, 19, 26, and 38 have also a cell growth inhibitory effect. Thus, in order to properly evaluate the inhibitory effect of the compounds on the OPN production, the 1×CCLR solution used in luciferase assay was added to cells remaining in each well after removal of culture supernatant to prepare a cell lysate, and the amount of protein in the cell lysate was measured using BCA Protein Assay Kit (Thermo Scientific). The influence of Compound 1 on the amount of the OPN production was evaluated by comparison of the amount of OPN per milligram of protein.
HepG2 cells or A549 cells were suspended in DMEM medium containing 10% FCS and 1% P/S at 4×10^4 cells/mL to obtain a cell suspension, and the cell suspension was dispensed into each well of a 24-well plate in an amount of 500 μL. In order to perform the test in triplicate, 3 wells were prepared for each control group, and 3 wells were prepared for each test compound-treated group at each concentration. The 24-well Plate was incubated in a CO2 incubator (at 37° C., and 3% CO2) for 24±4 hours.
Compound 1, 6, 19, 26, and 38 which are test compounds were dissolved in DMSO to prepare a 50 mmol/L solution of each compound, and the solutions were stored at −80° C. The solution of Compound 1 was diluted with DMSO to prepare 2.5 mmol/L and 5 mmol/L solutions (FIG. 1), 3.125 mmol/L and 6.25 mmol/L solutions (FIG. 2), 6.25 mmol/L and 12.5 mmol/L solutions (FIG. 3), or 5 mmol/L and 10 mmol/L solutions (FIG. 4). The two solutions of Compound 1 at different concentrations were added in an amount of 2 μL per well to wells in which HepG2, A549, OUR-10, or QGP-1 cells were culture, respectively. Only DMSO was added in an amount of 2 μL to each control well.
Similarly, the 50 mmol/L solution of Compound 6 was stared at −80° C., and the solution was diluted with DMSO to prepare 2.5 mmol/L and 5 mmol/L solutions (FIG. 5). The two solutions of Compound 6 at different concentrations were added in an amount of 2 μL per well to wells in which A549 cells were cultured. Only DMSO was added in an amount of 2 μL to the control well.
Also, the 50 mmol/L solutions of Compounds 19, 26, and 38 were stored at −80° C., and each solution was diluted with DMSO to prepare 3.125 mmol/L and 6.25 mmol/L solutions (FIGS. 8 to 10). The two solutions of Compound 19, 26, or 38 at different concentrations were added in an amount of 2 μL per well to wells in which A549 cells were cultured, respectively. Only DMSO was added in an amount of 2 μL to each control well.
The 24-well plate was shaken to mix the solution in each well, and was then incubated in a CO2 incubator (at 37° C. and 5% CO2) for 48±4 hours. Then, the total amount of the resulting culture supernatant was transferred into a 1.5 mL tube, and D-PBS(−) (500 μL) was added to each well containing cells.
The 24-well plate was gently shaken to remove D-PBS(−), and then 5×CCLR used in luciferase assay was diluted to 5 times with water to prepare 1×CCLR. The prepared 1×CCLR was dispensed into each well in an amount of […]. The 24-well plate was then rocked on a rocking shaker for 15 minutes. […]

[1] = concentration increased from 12.5 μmol/L to 25 μmol/L

COc1ccc(Oc2cccc(C(=O)CCNC(=O)c3ccc(O)cc3)c2N)cc1 [Compound 6, N-(3-(2-Amino-3-(4-methoxyphenoxy)phenyl)-3-oxopropyl)-4-hydroxybenzamide]
amount of the OPN production vs control group (10 μmol/L): significantly inhibited
amount of the OPN production vs control group (20 μmol/L): significantly inhibited
OPN production, dependence on concentration (concentration increased from 10 μmol/L to 20 μmol/L): inhibited depending on the concentration

O=C(CCNC(=O)c1ccc(O)cc1)Nc1cccc(Oc2ccc(Cl)c(Cl)c2)c1 [Compound 38, N-(3-(3-(3,4-dichlorophenoxy)phenylamino)-3-oxopropyl)-4-hydroxybenzamide]
amount of the OPN production vs control group (12.5 μmol/L): significantly inhibited
amount of the OPN production vs control group (25 μmol/L): significantly inhibited
OPN production, dependence on concentration [1]: inhibited depending on the concentration

Nc1ccc(C(=O)NCCC(=O)c2cccc(Oc3ccc(Cl)cc3)c2N)cc1 [Compound 19, N-(3-(2-Amino-3-(4-chlorophenoxy)phenyl)-3-oxopropyl)-4-aminobenzamide]
amount of the OPN production vs control group (12.5 μmol/L): significantly inhibited
amount of the OPN production vs control group (25 μmol/L): significantly inhibited
OPN production, dependence on concentration [1]: inhibited depending on the concentration

COc1ccc(Oc2cccc(NC(=O)CCNC(=O)c3ccc(O)cc3)c2)cc1 [Compound 26, N-(3-(3-(4-Methoxyphenoxy)phenylamino)-3-oxopropyl)-4-hydroxybenzamide]
OPN production, dependence on concentration [1]: inhibited depending on the concentration
